# From US6583118B1, “Chondroprotective agents” (Kureha Chemical Industry Co., Ltd., priority 1993, dated 2003)
# Columns and labels:
# BALB/c mice = assay: Observation for a week after oral administration to BALB/c mice; format: in vivo, mouse; details: 100 mg/kg
# Procedure: The same results were obtained where hesperidin, acacetin, diosmetin, apigenin, luteolin, or kaempferol was administered.
# [1] = tested on: chondrocyte culture (derived from cartilage of rabbit shoulder and knee joints); assay: Effect of test compounds on proteoglycan depletion in chondrocyte culture (PMA-induced, GAG content); format: cell-based, rabbit (New Zealand white Rabbits); details: for Relative amount of GAG: control without PMA = 100
# Procedure: The cartilages were sterilely extracted from the shoulder and knee joints of rabbits (New Zealand white Rabbits) (body weight of 1 to 1.5 kg). The cartilages were thoroughly washed with PBS (−) (free of Ca^2+, Mg^2+), Hanks' solution and 0.1% EDTA-PBS (−), and then cut into small segments (1 mm×1 mm×1 mm). After PBS (−) containing 0.1% EDTA was added, the segments were allowed to stand in an incubator of 37° C. for 30 minutes. Then, the segments were treated with a trypsin solution (0.25%) at 37° C. for one hour to remove the connective tissue adhered to the cartilage. After the supernatant had been removed, the cartilages were treated for about 2 to 2.5 hours in a Ham F-12 medium containing 10% fetal bovine serum (FBS) and 0.2% collagenase. Then, the collagenase solution was centrifuged (1500 r.p.m.), and the residual chondrocytes were washed twice with a Ham F-12 medium (chondrocyte culture medium) containing 10% FBS. Finally, the resulting suspension was adjusted so that the chondrocytes were suspended in the concentration of 3×10^5 cells/ml in the chondrocyte culture medium. The chondrocytes were seeded in an amount of 1 ml/well on 24-well plates. The chondrocytes became confluent after 4 days. The experiment were performed within two weeks after reaching the confluent stage.
# The chondrocyte culture medium which had been used for cultivating the chondrocytes was removed from each well and 800 μl of fresh serum-free S-Clone medium containing 0.1% human serum albumin was added. Further, 100 μl of S-Clone medium containing the compounds to be tested (containing the compound in the concentration of 10 fold the final concentration; DMSO concentration=2.5%) was added. The chondrocytes were cultured in the presence of carbon dioxide (5%) and air (95%) for 2 hours. Then, the proteoglycan depleting agent, PMA (phorbol myristate acetate) (final concentration=0.1 μg/ml) was added into the culture medium of the chondrocytes.
# Proteoglycan depletion was determined by the measurement of the glycosaminoglycan (major constituent of proteoglycan, hereinafter referred to as GAG) content following digestion of the chondrocyte matrix with papain.
# After 2 days, the supernatant of the chondrocyte culture was removed. Then, 1 ml of 0.03 […] papaine solution was added to the remaining chondrocyte matrix layer and a reaction was performed at 65° C. for 1 hour to liberate the GAG from the matrix layer. The content of the GAG in the treated papaine solution was determined by the 1,9-dimethylmethylene blue method (refer to R. W. Farndale, Biochim. Biophys. Acta., Vol. 883, pp. 173 to 177, 1986). The GAG content in the chondrocyte matrix of the control test wherein the proteoglycan depleting agent was not added was shown as “100”, and the relative amount of the GAG of each experiment except the control test was calculated by following formula:
# GAG relative amount (%)=(B/A)×100
# wherein A represents the GAG content of the control tests wherein the proteoglycan depleting agent was not added, and B represents the GAG content wherein the proteoglycan depleting agents were added alone or the GAG content wherein the proteoglycan depleting agents and the compounds to be tested were added.
# The GAG content is the value of the mean value ± standard error (n=3 to 6). For each of the compounds to be tested, the control test and the proteoglycan depleting test wherein the proteoglycan depleting agent was added were carried out and the results thereof are also shown. The significance was determined by Student's t-test with respect to the proteoglycan depleting test wherein the proteoglycan depleting agent was added.
# Mouse = assay: Acute toxicity, mouse LD50; format: in vivo; details: intravenous injection
# [2] = Acute toxicity, mouse LD50; format: in vivo; details: in vivo, oral administration
# [3] = PMA 0.1 μg/ml + test compound 100 μM, chondrocyte matrix after 2 days, mean ± standard error (n=3 to 6)
# [4] = PMA 0.1 μg/ml + test compound 100 μM
# [5] = BALB/c mice (female, seven weeks old), oral
"abnormalities observed for a week after administration (BALB/c mice; mouse, in vivo, po)",SMILES,"GAG content [1, 3]","Relative amount of GAG [1, 4]",other results
no abnormalities were observed,"O=c1cc(-c2ccc(O)cc2)oc2cc(O)cc(O)c12 [No. 5, Apigenin]",33.3 ± 0.7 µg/mL,(60.9) %,
no abnormalities were observed,"O=c1cc(-c2ccc(O)c(O)c2)oc2cc(O)cc(O)c12 [No. 8, Luteolin]",28.6 ± 0.5 µg/mL,(52.2) %,
,"COc1ccc(-c2cc(=O)c3c(O)cc(O[C@@H]4O[C@H](CO[C@@H]5O[C@@H](C)[C@H](O)[C@@H](O)[C@H]5O)[C@@H](O)[C@H](O)[C@H]4O)cc3o2)cc1 [No. 12, Linarin]",19.8 ± 0.7 µg/mL,(35.8) %,
no abnormalities were observed,"COc1ccc(-c2cc(=O)c3c(O)cc(O)cc3o2)cc1O [No. 13, Diosmetin]",27.1 ± 0.7 µg/mL,(49.0) %,
,"O=c1cc(-c2ccccc2)oc2cc(O)c(O)c(O)c12 [No. 15, Baicalein]",7.67 ± 0.5 µg/mL,(68.3) %,
,"O=c1c(O)c(-c2ccc(O)c(O)c2)oc2cc(O)ccc12 [No. 16, Fisetin]",30.1 ± 0.9 µg/mL,(55.7) %,LD50 (Mouse): 180 mg/kg
no abnormalities were observed,"O=c1c(O)c(-c2ccc(O)cc2)oc2cc(O)cc(O)c12 [No. 17, Kaempferol]",30.5 ± 0.3 µg/mL,(55.7) %,
,"O=c1c(O)c(-c2ccc(O)c(O)c2)oc2cc(O)cc(O)c12 [No. 22, Quercetin]",31.0 ± 0.6 µg/mL,(55.3) %,LD50 [2]: 160 mg/kg
,"COc1ccc([C@@H]2CC(=O)c3c(O)cc(O)cc3O2)cc1O [No. 41, Hesperetin]",28.7 ± 0.4 µg/mL,(48.6) %,abnormalities observed for a week after administration (BALB/c mice; [5]): no abnormalities were observed
,"COc1ccc([C@@H]2CC(=O)c3c(O)cc(O[C@@H]4O[C@H](CO[C@@H]5O[C@@H](C)[C@H](O)[C@@H](O)[C@H]5O)[C@@H](O)[C@H](O)[C@H]4O)cc3O2)cc1O [No. 42, Hesperidin]",24.0 ± 0.6 µg/mL,(42.8) %,abnormalities observed for a week after administration (BALB/c mice; [5]): no abnormalities were observed
,"COc1ccc2c(c1)c(CC(=O)O)c(C)n2C(=O)c1ccc(Cl)cc1 [indometacin, Indometacin, reference compound]",,,"Relative amount of GAG ([1]; PMA 0.1 μg/ml + indometacin 10 μM): (47.1) %; GAG content ([1]; PMA 0.1 μg/ml + indometacin 10 μM, mean ± standard error): 13.2 ± 0.6 µg/mL; Relative amount of GAG ([1]; PMA 0.1 μg/ml + indometacin 33 μM): (41.8) %; GAG content ([1]; PMA 0.1 μg/ml + indometacin 33 μM, mean ± standard error): 11.7 ± 0.8 µg/mL"

SMILES,"abnormalities observed for a week after administration (BALB/c mice; mouse, in vivo, po)","GAG content [1, 3]","Relative amount of GAG [1, 4]",other results
"COc1ccc(-c2cc(=O)c3c(O)cc(O)cc3o2)cc1 [No. 11, Acacetin]",no abnormalities were observed,24.2 ± 0.3 µg/mL,(44.8) %,
